Data published in paper PMC12428139, “The Functional State of Thermoplasma acidophilum Pyruvate Kinase Relies on an Extra Carboxyl-Terminal Sequence” (International Journal of Molecular Sciences, 2025).
Where “and” joins values, the source holds several entries; their conditions need not be identical. Identical values can stand only once. Like-named read-outs stand apart in the source and are kept apart here.

Experiments:
[1] = molecular target: T1, WT-ThaPK (Thermoplasma acidophilum, UniProt P32044); assay: LDH/NADH coupled assay, dead-end inhibition, global fit; assay type: biochemical
T1 construct: gene Ta0896; full length (1635 bp gene, 544 residues), N-terminal His6 tag and thrombin site (20 residues) kept, pET15b, E. coli BL21(DE3) Codon Plus-RIL
Description: LDH/NADH coupled assay, dead-end inhibition, global fit on WT-ThaPK

[2] = molecular target: ECTS truncated-ThaPK (Thermoplasma acidophilum pyruvate kinase lacking the extra C-terminal sequence) (Thermoplasma acidophilum) (UniProt P32044); assay: native gel or EMSA; 1D Blue Native PAGE, linear 4-18% acrylamide gradient, 4 °C, 50 µg protein per well; bands excised and resolved by 2D SDS-PAGE; masses from regression on standards, triplicate gels
[3] = molecular target: the molecule itself; assay: SEC; Superdex 200 (10/300), 50 mM HEPES pH 7.5, 150 mM NaCl, 500 µg of enzyme loaded, calibrated with BIORAD gel filtration standards

## Nc1ncnc2c1ncn2[C@@H]1O[C@H](COP(=O)(O)O)[C@@H](O)[C@H]1O [AMP]
[1]; read-out: Ki (AMP)
  Ki: 3.3 ± 0.3 mM

## ECTS truncated-ThaPK (Thermoplasma acidophilum pyruvate kinase lacking the extra C-terminal sequence) (from UniProt P32044 1-450) (domain or fragment)
[2]
  stoichiometry N: 2 and 3

## O=C(O)C(=O)O [oxalate]
[1]; read-out: Ki (Oxalate)
  Ki: 0.044 ± 0.001 mM

B1: Thermoplasma acidophilum pyruvate kinase, wild type (WT-ThaPK) (enzyme, UniProt P32044 1-544, looked up)
chain: MKTKIVATIGPASSSPEIMKQMIDNGLSLVRINSAHADIKDVSKITQMVRSINRDVGIMIDLKGPELRTGEFAGGTLKISSGKDYVMGKDIVLNNMNVLSAVQVGDRILMSDGEVSFEVESTDPFTIRALNDGVLRDRSRVNIPGRFIELGTITDRDRAFIREGIADGVDFFALSFVQKSENVDSLRDFVIDSGGDQYIISKIETKSGLDNIEEIVKSSDGIMVARGDLGVELPLKEVVLAQKHIIKTAHEDGDFTIVATQVLESMVNNSSPTRAEISDITNAIIDNADALMLSEESAIGKYPVQAVRTLKEVSDYVEDKVSFDSSYYFKGNTIAYSVARAAKILSDDIKSDGIVALTHTGSTVRMISSLRPKAMVYAATVSESLARKLNIYFGVLPLHMEGNAEDLSFSEIMEYIVRSGRFADGSKLVMTSGDPYFTFGGTNDVKVAVVGKFIGRGYSFGDSLSGTATYGTKGDILMSEDGRIPGTDFRAFIFTSDIKPSLMSSLKGKTVVTKARLVRQIKEGERIYIDGNTGIILMASPDQK
notes: pyruvate kinase of Thermoplasma acidophilum; synthetic gene of 1635 bp cloned NdeI/BamHI in pET15b; last residue K544; monomer 59,147.48 Da plus 20 extra residues (His6 tag and thrombin site, 2193.26 Da) that thrombin could not cleave; The 20 additional N-terminal residues from pET15b (His6 tag and thrombin cleavage site) stayed on the protein in all experiments; also called wild-type enzyme; …
[3]
  stoichiometry N: 4
